The series is described as follows: RP, Waters SunFire C18, 50 × 4.6 mm, 3.5 µm, 0.5 mL/min, estimated dead time 1.1 min; A: water + 0.1% formic acid; B: acetonitrile + 0.1% formic acid; gradient (min/%B) 0/5 7/100 8/100. The settings on record: stereoisomer not certain.
Consider `Cc1cc(O)c(C=O)c2c1C(=O)Oc1c(C)c(O)c3c(c1O2)C(O)OC3=O` (configuration not stated), for which the LC retention time is 5.3 min.
For the compound `Cc1cc(O)c(C=O)c(O)c1C(=O)O`, the LC retention time was 7.07 min.
Consider `CCCCCC(=O)Cc1cc(O)cc2c1C(=O)Oc1cc(O)c(C(=O)O)c(CC(=O)CCCCC)c1O2`, for which the LC retention time was 7.64 min.
Regarding `CCCCCCCCCCC1CC(C(=O)O)C(C)C(=O)O1` (configuration not stated), the LC retention time is 6.95 min.
As for `CCC(C)C(NC(=O)c1ccccc1)C(=O)OCC(NC(=O)c1ccccc1)C(C)C` (configuration not stated), the figure is 6.17 min.
On to `Cc1cc(O)c(C=O)c(O)c1C(=O)OCc1cc(O)c(C)c(O)c1C(=O)O`, for which the LC retention time was 6.74 min.
For the compound `CCCCCc1c(Oc2cc(OC)cc3c2C(=O)OC3(O)CCCC)c(O)cc(O)c1C(=O)O` (configuration not stated), the LC retention time is 5.81 min.
For the compound `COC(=O)c1c(C)cc(O)cc1O`, the LC retention time is 4.63 min.
On to `Cc1cc(O)c(C=O)c2c1C(=O)Oc1c(CO)c(O)c3c(c1O2)C(O)OC3=O` (configuration not stated), for which the LC retention time was 4.51 min.
With `COc1cc(C(=O)O)c2c(c1C)OC(=O)c1c(C)cc(O)c(C=O)c1O2` the figure was 5.08 min; with `COC(=O)C(CC(C)C)NC(=O)C(=C1OC(=O)C(c2ccccc2)=C1O)c1ccccc1` (configuration not stated), 7.82 min.
As for `COc1cc(C)c2c(c1C=O)Oc1c(c(C)c(O)c3c1C(O)OC3=O)OC2=O` (configuration not stated), the figure is 4.93 min.
`CCCc1cc(OC(=O)c2c(O)cc(OC)cc2CCC)cc(O)c1C(=O)O`: the LC retention time is 7.33 min.
With `COc1cc(OC)c2c(=O)cc(C)oc2c1C` the figure was 4.51 min; with `CC1CCC2(C(=O)O)CCC3(C)C(=CCC4C5(C)CCC(O)C(C)(C)C5CCC43C)C2C1C` (configuration not stated), 7.89 min.
`CC(=O)OCc1c(O)c(C(=O)O)c(C)c2c1OC(=O)c1c(C)cc(O)c(C=O)c1O2`: the LC retention time was 7.28 min.
As for `CCC(C)CC(C)C(O)C(C)C(=O)OC(C(C)CC(C)CC)C(C)C(=O)O` (configuration not stated), the figure is 7.83 min; as for `COC(=O)C(=C1OC(=O)C(c2ccccc2)=C1O)c1ccccc1OC`, 6.75 min.
With `COc1cc(C)c(C(=O)Oc2cc(C)c(C(=O)O)c(O)c2C)c(O)c1C=O` the figure was 6.35 min; with `COC1=C(O)c2cc3oc(C(C)=O)c(O)c3c(O)c2C(=O)C1=O`, 4.27 min; with `COc1cc(O)cc(C)c1C(=O)O`, 2.35 min.
In the case of `CCCCCC(=O)Cc1cc(O)cc(O)c1C(=O)Oc1cc(CC(=O)CCCCC)c(C(=O)O)c(OC)c1`, the LC retention time is 6.03 min.
With `CCCCCc1cc(OC)cc(O)c1C(=O)Oc1cc(O)c(C(=O)O)c(CCC)c1` the figure was 7.47 min; with `CCCCCc1cc(O)c(OC(=O)c2c(CCC)cc(OC)cc2OC)c(O)c1C(=O)O`, 6.84 min.
With `COc1cc2oc(C)cc(=O)c2c(O)c1COC(=O)C=C(C)CC(=O)O` the figure was 5.06 min.
As for `O=C1OC(=C2C(=O)Oc3ccccc32)C(O)=C1c1ccccc1`, the figure is 7.68 min; as for `CCCc1cc(OC)cc(O)c1C(=O)O`, 5.25 min.
`Cc1cc(=O)c2c(O)cc(O)c(C)c2o1`: the LC retention time is 4.65 min.
With `CCCc1cc(O)cc(O)c1` the figure was 3.97 min; with `Cc1cc(OC(=O)c2c(C)cc(O)c(O)c2O)cc(O)c1C(=O)O`, 4.69 min.
With `COC(=O)C12Oc3ccc(-c4ccc5c(c4O)C(O)=C4C(=O)CC(C)C(O)C4(C(=O)OC)O5)c(O)c3C(O)=C1C(=O)CC(C)C2O` (configuration not stated) the figure was 6 min; with `COC1=CC(=O)C(=O)c2cc3oc(C)cc(=O)c3c(OC)c21`, 4.03 min.
In the case of `COc1cc(C)c(C(=O)Oc2cc(C)c(C(=O)O)c(O)c2C)c(O)c1C`, the LC retention time was 7.26 min.
As for `CCCCCc1cc(O)cc(OC)c1C(=O)Oc1c(O)cc(CCCCC)c(C(=O)O)c1O`, the figure is 6.54 min; as for `COC12CC(=O)C(C(C)=O)=C(O)C1(C)c1c(O)c(C(C)=O)c(O)c(C)c1O2` (configuration not stated), 6.88 min.
With `C=C1C(=O)OC(CCCCCCCCCCCCC)C1C(=O)O` (configuration not stated) the figure was 7.88 min; with `Cc1cc(OC(=O)c2c(C)cc(O)cc2O)cc(O)c1C(=O)OCC(O)C(O)CO` (configuration not stated), 4.52 min; with `O=C1c2cc(O)cc(O)c2C(=O)c2c(O)cc(CO)cc21`, 4.9 min.
With `CCCCCCCCCCCC1OC(=O)C(C)C1C(=O)O` (configuration not stated) the figure was 7.46 min; with `CCCCCc1cc(O)cc(O)c1C(=O)O`, 5.24 min; with `CCCCCC(=O)Cc1cc(O)cc2c1C(=O)Oc1cc(O)c(C(=O)O)c(CCCCC)c1O2`, 7.13 min.
For the compound `COC(=O)c1c(OC)cc2oc3c(C(=O)O)c(C)cc(OC)c3c2c1C`, the LC retention time is 5.63 min.
As for `CC(=O)OC1C(C)C(C)OC2(C(C)C3OC(=O)C2(C)C(=O)C3C)C1C` (configuration not stated), the figure is 5.84 min; as for `O=C1OC2=C(c3ccccc3)C(=O)OC2=C1c1ccccc1`, 7.64 min.
As for `Cc1cc(O)c(C=O)c2c1C(=O)Oc1c(COC(=O)CCC(=O)O)c(O)c(C(=O)O)c(C)c1O2`, the figure is 6.28 min.
With `COc1cc(CCC(C(=O)[O-])[N+](C)(C)C)cc(OC)c1O` (configuration not stated), the LC retention time is 6.6 min.
For the compound `Cc1cc(O)cc2oc3cc(O)cc(O)c3c(=O)c12`, the LC retention time is 5.15 min.
As to `O=C1NC(c2ccccc2)CC(=O)N2CCCC2C(=O)NC(c2ccccc2)CC(=O)N2CCCC12` (configuration not stated), the LC retention time was 5.08 min.
Consider `COc1cc(C)c(C(=O)Oc2c(C)c(C(=O)O)c(O)c(C=O)c2O)c(O)c1C=O`, for which the LC retention time is 6.37 min.
As for `CCCCCC(=O)Cc1cc(O)c(O)c2c1C(=O)Oc1cc(O)c(C(=O)O)c(CCCCC)c1O2`, the figure is 6.62 min.
On to `COc1c(O)c(O)c2c(c1O)C(=O)c1oc(C(C)=O)c(O)c1C2=O`, for which the LC retention time was 4.5 min.
With `Cc1cc(O)c2c(c1)C(=O)c1cccc(O)c1C2=O` the figure was 6.39 min; with `COc1cc(O)c2c(c1)C(=O)c1cc(C=O)cc(O)c1C2=O`, 6 min; with `CCCCCC(=O)Cc1cc(OC)c(O)c2c1C(=O)Oc1cc(O)c(C(=O)O)c(CCCCC)c1O2`, 6.95 min.
With `CCCCCCCCCCCCC(C(=O)O)C(C)C(=O)O` (configuration not stated), the LC retention time was 7.45 min.
As for `CCCCCc1cc(OC(=O)c2c(O)cc(O)cc2CCCCC)cc(O)c1C(=O)O`, the figure is 7.28 min.
With `CCCCCc1cc2cc(O)cc(O)c2c(=O)o1` the figure was 6.08 min; with `COc1cc(C)c(C(=O)Oc2cc(C)c(C(=O)O)c(O)c2C)c(O)c1C(=O)O`, 5.79 min.
Regarding `CCCCCc1cc(OC(=O)c2c(CCCCC)cc(OC)cc2OC)cc(OC)c1C(=O)O`, the LC retention time is 7.52 min.
With `CCCCCC1=CC(=O)C=C(OC)C12C(=O)Oc1cc(O)c(C(=O)O)c(CCCCC)c12` (configuration not stated) the figure was 7.48 min; with `CCCc1cc(OC)cc(O)c1C(=O)Oc1c(O)cc(CCC)c(C(=O)OC)c1O`, 7.11 min.
`COc1cc(C)c2c(=O)c3c(O)cc(OC)cc3oc2c1`: the LC retention time was 6.94 min.
Consider `COc1cc(O)cc(C)c1C(=O)Oc1cc(C)c(C(=O)Oc2cc(C)c(C(=O)O)c(O)c2)c(O)c1`, for which the LC retention time was 6.17 min.
As for `CCCc1cc(OC)cc(O)c1C(=O)Oc1c(OC)cc(CCC)c(C(=O)O)c1O`, the figure is 7.83 min; as for `O=C1C(O)=C(c2ccccc2)C(=O)C(O)=C1c1ccccc1`, 5.71 min.
With `CC1=C(C(=O)O)C(CCCCCCCCCCCCC(C)CO)OC1=O` (configuration not stated), the LC retention time is 6.93 min.
Turning to `COC(=O)C(=C1OC(=O)C(c2ccccc2)=C1O)c1ccccc1`, the LC retention time is 7.49 min.
